Source: the CheMixHub viscosity set

Experiment: xn = mol fraction of the nth substance listed

Cc1cn([C@H]2CC(O)[C@@H](CO)O2)c(=O)[nH]c1=O (some centres undefined) + O
viscosity [mPa·s], 101.3 kPa
Conditions | x1 = 9.02e-05 | x1 = 0.000159 | x1 = 0.0002266 | x1 = 0.0003081 | x1 = 0.0004541 | x1 = 0.0004775
298.15 K | 0.893 | 0.894 | 0.895 | 0.897 | 0.899 | 0.9
308.15 K | 0.721 | 0.722 | 0.723 | 0.724 | 0.726 | 0.727
318.15 K | 0.598 | 0.598 | 0.599 | 0.6 | 0.602 | 0.602

CCCCCC(=O)O + CC(C)[C@@H]1CC[C@@H](C)C[C@H]1O
Conditions | viscosity [mPa·s]
298 K, 101 kPa, x2 = 0.333 | 8.9

CCOCC + O
298.15 K, 101 kPa
Conditions | viscosity [mPa·s]
x1 = 0.00334 | 0.9366
x1 = 0.00369 | 1.053
x1 = 0.00509 | 0.9597
x1 = 0.00551 | 1.073
x1 = 0.00769 | 0.9959
x1 = 0.00866 | 1.107
x1 = 0.00871 | 1.01
x1 = 0.0107 | 1.132
x1 = 0.0113 | 1.138
x1 = 0.0149 | 1.088
x1 = 0.973 | 0.27
x2 = 0.0179 | 0.269

CC(C)CC(C)(C)C + COC(=O)OC
viscosity [mPa·s], 101 kPa
Conditions | x2 = 0.1235 | x2 = 0.2408 | x2 = 0.3521 | x2 = 0.4583 | x2 = 0.5592 | x2 = 0.6554 | x2 = 0.7475 | x2 = 0.8352 | x2 = 0.9193
293.15 K | 0.4747 | 0.4613 | 0.4659 | 0.4672 | 0.4798 | 0.4974 | 0.5114 | 0.5331 | 0.5636
298.15 K | 0.4464 | 0.4356 | 0.44 | 0.4397 | 0.4483 | 0.4637 | 0.4815 | 0.5015 | 0.5303
303.15 K | 0.4224 | 0.4116 | 0.4159 | 0.4143 | 0.4231 | 0.4353 | 0.4517 | 0.4719 | 0.5004
313.15 K | 0.3788 | 0.3706 | 0.373 | 0.3699 | 0.3779 | 0.3929 | 0.4049 | 0.4201 | 0.4475
323.15 K | 0.3424 | 0.3338 | 0.3339 | 0.3344 | 0.3399 | 0.3487 | 0.3616 | 0.376 | 0.3958

CC(=O)CC(C)C + CCCCO
101 kPa
Conditions | viscosity [mPa·s]
303.15 K, x2 = 0.1311 | 0.542
303.15 K, x2 = 0.2531 | 0.592
303.15 K, x2 = 0.367 | 0.653
303.15 K, x2 = 0.4745 | 0.748
303.15 K, x2 = 0.5795 | 0.862
303.15 K, x2 = 0.6729 | 0.997
303.15 K, x2 = 0.7627 | 1.185
303.15 K, x2 = 0.8465 | 1.42
303.15 K, x2 = 0.9254 | 1.728
313.15 K, x2 = 0.1311 | 0.482
313.15 K, x2 = 0.2533 | 0.526
313.15 K, x2 = 0.3677 | 0.578
313.15 K, x2 = 0.4745 | 0.647
313.15 K, x2 = 0.5754 | 0.733
313.15 K, x2 = 0.6704 | 0.844
313.15 K, x2 = 0.7604 | 0.98
313.15 K, x2 = 0.9236 | 1.43
323.15 K, x2 = 0.1319 | 0.428
323.15 K, x2 = 0.2542 | 0.464
323.15 K, x2 = 0.3688 | 0.507
323.15 K, x2 = 0.4759 | 0.565
323.15 K, x2 = 0.5759 | 0.621
323.15 K, x2 = 0.6721 | 0.707
323.15 K, x2 = 0.7597 | 0.801
323.15 K, x2 = 0.8452 | 0.937
323.15 K, x2 = 0.9386 | 1.136

CCOCC + O=S(=O)(O)O
303.15 K, 101 kPa
Conditions | viscosity [mPa·s]
x1 = 0.00853 | 206.9
x1 = 0.01735 | 203
x2 = 0.05093 | 2.73
x2 = 0.07611 | 3.096
x2 = 0.1322 | 4.36
x2 = 0.1739 | 5.79
x2 = 0.2412 | 9.824
x2 = 0.3269 | 21.94
x2 = 0.3684 | 34.8
x2 = 0.3933 | 47.52
x2 = 0.4239 | 67.01
x2 = 0.4513 | 87.88
x2 = 0.5139 | 134.5
x2 = 0.5527 | 153.7
x2 = 0.5826 | 161.5
x2 = 0.636 | 160.6
x2 = 0.6604 | 156.7
x2 = 0.729 | 133.8
x2 = 0.8088 | 127.2
x2 = 0.8194 | 127.2
x2 = 0.891 | 138.2
x2 = 0.9089 | 145.2
x2 = 0.9478 | 169.2
x2 = 0.9658 | 187.2
x2 = 0.9684 | 189.7
x2 = 0.9737 | 196.3

CCCCCCO + CO
298.15 K, 101.33 kPa
Conditions | viscosity [mPa·s]
x2 = 0.1054 | 3.881
x2 = 0.2016 | 3.351
x2 = 0.3144 | 2.778
x2 = 0.4093 | 2.348
x2 = 0.5053 | 1.968
x2 = 0.6027 | 1.615
x2 = 0.7094 | 1.278
x2 = 0.8038 | 1.001
x2 = 0.9022 | 0.7601

CC(=O)CC(C)C + Cc1ccc(C)cc1
298.15 K, 101 kPa
Conditions | viscosity [mPa·s]
x1 = 0.1409 | 0.59
x1 = 0.226 | 0.583
x1 = 0.3369 | 0.576
x1 = 0.4463 | 0.569
x1 = 0.5673 | 0.563
x1 = 0.6366 | 0.559
x1 = 0.8014 | 0.551
x1 = 0.9061 | 0.546

CN(C)C(=N)NC(=N)N.Cl + O
viscosity [mPa·s]
Conditions | 298.15 K | 303.15 K | 308.15 K | 313.15 K | 318.15 K
100 kPa, x1 = 0.00018 | 0.894 | – | – | – | –
100 kPa, x1 = 0.0003598 | 0.896 | 0.803 | – | – | –
100 kPa, x1 = 0.0005412 | 0.898 | 0.805 | 0.726 | – | –
100 kPa, x1 = 0.0007212 | 0.9 | – | – | 0.663 | –
100 kPa, x1 = 0.0009 | – | – | – | – | 0.607
100 kPa, x1 = 0.0009014 | 0.902 | 0.809 | 0.73 | 0.665 | –
100 kPa, x1 = 0.001079 | 0.904 | 0.811 | 0.732 | 0.667 | –
100 kPa, x1 = 0.001259 | 0.906 | – | 0.734 | 0.669 | –
100 kPa, x1 = 0.001439 | 0.908 | 0.815 | 0.736 | 0.671 | –
100 kPa, x1 = 0.001619 | 0.91 | 0.817 | 0.738 | 0.673 | –
100 kPa, x1 = 0.001798 | 0.912 | 0.819 | 0.74 | 0.675 | –
100 kPa, x1 = 0.0018 | – | – | 0.739 | 0.675 | 0.613
100 kPa, x1 = 0.0027 | – | – | 0.75 | 0.68 | 0.622
101 kPa, x1 = 0.00011 | – | – | 0.721 | – | 0.597
101 kPa, x1 = 0.000241 | – | – | 0.723 | – | 0.598
101 kPa, x1 = 0.000481 | – | – | 0.726 | – | 0.6
101 kPa, x1 = 0.000722 | 0.903 | – | 0.729 | – | 0.601
101 kPa, x1 = 0.000965 | 0.907 | – | 0.732 | – | 0.604
101 kPa, x1 = 0.00121 | 0.91 | – | 0.735 | – | 0.606

CCOCC + COCCO
298.15 K, 101 kPa
Conditions | viscosity [mPa·s]
x2 = 0.0976 | 0.2661
x2 = 0.1958 | 0.307
x2 = 0.2944 | 0.363
x2 = 0.3936 | 0.4399
x2 = 0.4933 | 0.5713
x2 = 0.5936 | 0.6782
x2 = 0.6944 | 0.8546
x2 = 0.7957 | 1.065
x2 = 0.8976 | 1.33

O=C1CCCCC1 + CCCCCCO
303.15 K, 101 kPa
Conditions | viscosity [mPa·s]
x1 = 0.1001 | 3.014
x1 = 0.2599 | 2.391
x1 = 0.4199 | 2.008
x1 = 0.5798 | 1.861
x1 = 0.7404 | 1.738

CC(C)CC(C)(C)C + CCCCCCC
101 kPa
Conditions | viscosity [mPa·s]
293.15 K, x1 = 0.6 | 0.454
293.15 K, x1 = 0.8 | 0.473
298.15 K, x1 = 0.1802 | 0.4055
298.15 K, x1 = 0.2943 | 0.4133
298.15 K, x1 = 0.3739 | 0.4193
298.15 K, x1 = 0.4883 | 0.4269
298.15 K, x1 = 0.5806 | 0.4357
298.15 K, x1 = 0.6254 | 0.4399
298.15 K, x1 = 0.7244 | 0.4491
298.15 K, x1 = 0.799 | 0.4562
298.15 K, x1 = 0.8649 | 0.461
298.15 K, x1 = 0.9217 | 0.4665
298.15 K, x1 = 0.9641 | 0.4743
313.15 K, x1 = 0.2 | 0.343
313.15 K, x1 = 0.4 | 0.354
313.15 K, x1 = 0.6 | 0.366
313.15 K, x1 = 0.8 | 0.38
